# Calls of active or inactive are those of the source. No cut-off for these calls is given here.
# Legend:
# [1] = target: Cannabinoid receptor 2 (Mus musculus) (UniProt P47936); experiment: Binding affinity to CB2 receptor in mouse spleen at 0.4 nM after 15 mins by autoradiography in presence of GW405833; details: tested as the 11C-labelled form
# [2] = target: Cannabinoid receptor 2 (Rattus norvegicus) (UniProt Q9QZN9); experiment: Binding affinity to CB2 receptor in rat spleen at 0.4 nM after 15 mins by autoradiography in presence of GW405833; assay type: tissue-based; details: tested as the 11C-labelled form
# [3] = target: Cannabinoid receptor 1 (Homo sapiens, UniProt P21554); experiment: Displacement of [3H]-CP-55940 from human CB1 receptor transfected in CHOK1 cells after 90 mins by liquid scintillation counting analysis; assay type: cell-based, CHO-K1
# Sequence of Cannabinoid receptor 1 (P21554 whole entry): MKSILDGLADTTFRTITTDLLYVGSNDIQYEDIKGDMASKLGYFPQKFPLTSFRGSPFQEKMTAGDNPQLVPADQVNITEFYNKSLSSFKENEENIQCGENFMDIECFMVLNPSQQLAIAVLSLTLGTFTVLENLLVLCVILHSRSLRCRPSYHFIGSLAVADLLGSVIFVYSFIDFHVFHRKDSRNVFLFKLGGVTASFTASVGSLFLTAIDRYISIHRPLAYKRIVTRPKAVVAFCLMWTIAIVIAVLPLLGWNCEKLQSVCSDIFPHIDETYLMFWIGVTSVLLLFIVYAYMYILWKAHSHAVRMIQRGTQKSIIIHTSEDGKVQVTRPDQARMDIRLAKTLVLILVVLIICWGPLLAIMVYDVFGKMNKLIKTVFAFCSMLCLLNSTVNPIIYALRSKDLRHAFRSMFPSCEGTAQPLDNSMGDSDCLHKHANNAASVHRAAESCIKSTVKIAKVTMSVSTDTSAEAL
# Sequence of Cannabinoid receptor 2 (Rattus norvegicus) (Q9QZN9 whole entry): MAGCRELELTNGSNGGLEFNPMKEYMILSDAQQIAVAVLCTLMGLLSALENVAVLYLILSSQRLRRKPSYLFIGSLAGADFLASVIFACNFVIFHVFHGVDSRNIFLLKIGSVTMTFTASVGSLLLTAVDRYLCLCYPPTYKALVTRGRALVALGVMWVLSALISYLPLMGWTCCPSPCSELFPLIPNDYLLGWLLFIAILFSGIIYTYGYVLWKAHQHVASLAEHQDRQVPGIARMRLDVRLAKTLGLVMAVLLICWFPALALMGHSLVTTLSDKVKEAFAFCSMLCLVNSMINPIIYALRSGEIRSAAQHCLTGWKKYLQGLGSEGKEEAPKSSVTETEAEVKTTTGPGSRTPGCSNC
# Sequence of Cannabinoid receptor 2 (Mus musculus) (P47936 whole entry): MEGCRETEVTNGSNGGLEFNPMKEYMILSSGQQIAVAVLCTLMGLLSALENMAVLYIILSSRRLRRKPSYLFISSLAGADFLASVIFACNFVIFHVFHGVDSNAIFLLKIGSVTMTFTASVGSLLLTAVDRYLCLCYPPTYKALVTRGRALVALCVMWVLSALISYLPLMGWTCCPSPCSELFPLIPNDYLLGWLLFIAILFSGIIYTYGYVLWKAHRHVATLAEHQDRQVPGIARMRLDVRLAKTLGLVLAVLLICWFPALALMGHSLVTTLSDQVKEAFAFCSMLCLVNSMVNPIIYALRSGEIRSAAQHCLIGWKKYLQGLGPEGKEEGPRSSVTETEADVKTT
smiles,measurement,setting,value
CCOCCn1cc(C(=O)NC23CC4CC(CC(C4)C2)C3)c(=O)c2cccc(OC)c21,Activity,[1],inactive
same,Activity,[2],inactive
same,Ki,[3],> 10 µM
